Key:
[1] = Pharmacokinetic parameters for different drugs following multiple oral or intravenous administration in healthy subjects.; format: ADME, organism-based; design: dose 200 mg/day, route oral; conditions: human, in vivo, dosed compound id 68, dosed compound name IMIPRAMINE HYDROCHLORIDE, regimen Repeated dose, study dosing duration 4 weeks, tissue Plasma
[2] = Pharmacokinetic parameters for different drugs following single oral or intravenous administration in healthy subjects.; conditions: human, in vivo, 100 mg

Row | Cmax ([1]; po, 200 mg/day) [ng/mL] | Tmax ([1]; dose 200 mg/day, route oral) [h] | Vd ([2]; iv) [L/kg] | bioavailability ([2]; iv) [%] | dose excreted ([2]; iv) [%] | half-life ([2]; iv) [h] | Tmax ([2]; im) [h] | bioavailability ([2]; inhaled or intranasal) [%] | clearance ([2]; iv) [mL/min/kg] | Cmax ([2]; po, Cmax) [ng/mL] | Structure (SMILES)
1 | 200 | 2 to 6 | 18 | 42 | 2 | 16 |  |  |  |  | CN(C)CCCN1c2ccccc2CCc2ccccc21.Cl [IMIPRAMINE HYDROCHLORIDE]
2 |  |  | 0.33 |  | 90 | 2.2 | 0.3 | 9 | 0.98 | 4600 | NC[C@H]1O[C@H](O[C@H]2[C@H](O)[C@@H](O[C@H]3O[C@H](CO)[C@@H](O)[C@H](N)[C@H]3O)[C@H](N)C[C@@H]2N)[C@H](N)C[C@@H]1O [TOBRAMYCIN]

From ChEMBL document CHEMBL3832076, “Goodman and Gilman Ed. 10 | The Pharmaceutical Basis of Therapeutics| Table A-II-I: Pharmacokinetic Data” (2001)
